Measurements taken from ChEMBL document CHEMBL4390668, “Discovery and Structural Optimization of Acridones as Broad-Spectrum Antimalarials” (J Med Chem, 2019).

Tests used:
[1] = Selectivity index, ratio of IC50 for human HepG2 cells to IC50 for chloroquine-sensitive Plasmodium falciparum D6 infected in human erythrocytes; type: toxicity, cell-based; details: read-out: Ratio IC50
Plasmodium falciparum [2] = experiment: Antimalarial activity against chloroquine-sensitive Plasmodium falciparum D6 infected in human erythrocytes by SYBR green 1-based fluorescence assay; type: functional, organism-based
Plasmodium falciparum [3] = experiment: Antimalarial activity against atovaquone-resistant Plasmodium falciparum Tm90-C2B infected in human erythrocytes by SYBR green 1-based fluorescence assay; type: functional, organism-based
HepG2 = experiment: Cytotoxicity against human HepG2 cells measured after 24 to 36 hrs by resazurin dye based fluorescence assay; type: cell-based
Plasmodium falciparum [4] = experiment: Antimalarial activity against multidrug-resistant Plasmodium falciparum 7G8 infected in human erythrocytes by SYBR green 1-based fluorescence assay; type: functional, organism-based
Plasmodium falciparum [5] = experiment: Antimalarial activity against multidrug-resistant Plasmodium falciparum Dd2 infected in human erythrocytes by SYBR green 1-based fluorescence assay; type: functional, organism-based
Plasmodium berghei = experiment: Antimalarial activity against luciferase-expressing Plasmodium berghei ANKA 676m1cl1 sporozoites infected in human HepG2A16 cells measured after 45 hrs by luciferase-luciferin based reporter assay; type: functional, organism-based; details: ANKA 676m1cl1, HepG2A16, 45 h
[6] = Half life in human liver microsomes at 1 uM by LC-MS analysis; type: ADME, Microsome
[7] = Half life in mouse liver microsomes at 1 uM by LC-MS analysis; type: ADME, Microsome

Compound	selectivity ratio [1]	IC50 (Plasmodium falciparum [2])	IC50 (Plasmodium falciparum [3])	IC50 (HepG2)	IC50 (Plasmodium falciparum [4])	IC50 (Plasmodium falciparum [5])	IC50 (Plasmodium berghei)	half-life at 1 µM [6]	half-life at 1 µM [7]
CCCN(CCC)CCOc1ccc2[nH]c3cc(OC)cc(Cl)c3c(=O)c2c1	> 1270	79 nM	558 nM	> 100 µM	288 nM	92 nM	–	–	–
CCCN(CCC)CCOc1ccc2[nH]c3cc(Cl)cc(OC)c3c(=O)c2c1	1220	30 nM	96 nM	36.8 µM	32 nM	11 nM	–	–	–
O=c1c2ccc(OCCCl)cc2[nH]c2cc(F)cc(F)c12	> 40000	5 nM	46 nM	> 200 µM	22 nM	7 nM	–	–	–
CCCN(CCC)CCOc1ccc2c(=O)c3ccc(C(F)(F)F)cc3[nH]c2c1	> 3850	26 nM	1540 nM	> 100 µM	5.6 nM	0.44 nM	–	–	–
CCN(CC)CCOc1ccc2c(=O)c3ccc(C(F)(F)F)cc3[nH]c2c1	47	816 nM	1390 nM	38.6 µM	1540 nM	555 nM	–	–	–
O=c1c2ccc(OCCN3CCOCC3)cc2[nH]c2ccc(Cl)c(Cl)c12	> 1540	65 nM	196 nM	> 100 µM	273 nM	38 nM	–	–	–
CCCCNCCCOc1ccc2c(=O)c3c(Cl)c(Cl)ccc3[nH]c2c1	492	46 nM	68 nM	22.7 µM	106 nM	37 nM	–	–	–
O=c1c2ccc(Cl)cc2[nH]c2cc(OCCN3CCCC3)ccc12	48	529 nM	1500 nM	25.5 µM	959 nM	781 nM	456 nM	–	–
CC(C)(C)NCCCOc1ccc2c(=O)c3cc(Cl)ccc3[nH]c2c1	112	674 nM	2140 nM	75.2 µM	> 2500 nM	1020 nM	–	–	–
CCN(CC)CCOc1ccc2c(=O)c3ccc(Br)cc3[nH]c2c1	> 1600	25 nM	968 nM	> 40 µM	37 nM	34 nM	100 nM	> 60 min	> 60 min
O=c1c2ccc(OCCCCl)cc2[nH]c2cc(F)cc(F)c12	> 71400	1.4 nM	89 nM	> 100 µM	1.9 nM	0.3 nM	–	–	–
O=c1c2ccc(OCCCCCl)cc2[nH]c2cc(F)cc(F)c12	> 100000	0.12 nM	40 nM	> 100 µM	0.5 nM	0.16 nM	17 nM	14 min	6 min
CCCN(CCC)CCOc1ccc2[nH]c3cc(Cl)c(Cl)cc3c(=O)c2c1	> 3850	26 nM	58 nM	> 100 µM	14 nM	17 nM	–	–	–
CN(C)CCOc1ccc2c(=O)c3ccc(Cl)cc3[nH]c2c1	1050	56 nM	563 nM	59 µM	70 nM	63 nM	–	–	–
CCN(CC)CCNc1ccc2c(=O)c3cc(F)c(OC)cc3[nH]c2c1	239	526 nM	1510 nM	126 µM	1300 nM	1170 nM	–	–	–
CCN(CC)CCOc1ccc2[nH]c3ccc(Cl)cc3c(=O)c2c1	> 629	159 nM	297 nM	> 100 µM	521 nM	399 nM	–	–	–
O=c1c2ccc(OCCCCl)cc2[nH]c2ccc(Cl)cc12	> 4170	24 nM	371 nM	> 100 µM	51 nM	38 nM	–	–	–
CN(C)CCOc1ccc2c(=O)c3c(Cl)c(Cl)ccc3[nH]c2c1	> 254	393 nM	> 2500 nM	> 100 µM	1250 nM	2000 nM	–	–	–
CCN(CC)CCOc1ccc2c(=O)c3ccc(Cl)c(Cl)c3[nH]c2c1	61	749 nM	> 2500 nM	46 µM	> 2500 nM	2440 nM	–	–	–
CC(C)(C)NCCCOc1ccc2c(=O)c3cc(Cl)c(Cl)cc3[nH]c2c1	49	123 nM	551 nM	6.1 µM	421 nM	589 nM	–	–	–
O=c1c2ccc(OCCCl)cc2[nH]c2cc(Cl)cc(Cl)c12	> 7140	14 nM	409 nM	> 100 µM	44 nM	12 nM	–	–	–

Compound	selectivity ratio [1]	IC50 (Plasmodium falciparum [2])	IC50 (Plasmodium falciparum [3])	IC50 (HepG2)	IC50 (Plasmodium falciparum [4])	IC50 (Plasmodium falciparum [5])	IC50 (Plasmodium berghei)	half-life at 1 µM [6]	half-life at 1 µM [7]
CCN(CC)CCCCCOc1ccc2c(=O)c3ccc(Cl)cc3[nH]c2c1	58	540 nM	1040 nM	31.3 µM	–	511 nM	202 nM	> 60 min	> 60 min
CCCN(CCC)CCOc1ccc2[nH]c3ccc(Cl)c(Cl)c3c(=O)c2c1	128	99 nM	274 nM	12.7 µM	32 nM	17 nM	–	–	–
CCCN(CCC)CCOc1ccc2[nH]c3cc(OC)cc(F)c3c(=O)c2c1	37700	0.7 nM	47 nM	26.4 µM	0.42 nM	0.13 nM	0.65 nM	–	–
CC(C)(C)NCCCOc1ccc2c(=O)c3c(Cl)c(Cl)ccc3[nH]c2c1	127	196 nM	> 2500 nM	24.8 µM	1630 nM	1360 nM	–	–	–
O=c1c2ccc(OCCCCl)cc2[nH]c2cc(Cl)c(Cl)cc12	> 558	179 nM	945 nM	> 100 µM	2330 nM	161 nM	–	–	–
CCN(CC)CCCOc1ccc2c(=O)c3c(F)cc(F)cc3[nH]c2c1	1210	32 nM	705 nM	38.6 µM	44 nM	7.8 nM	–	–	–
CCN(CC)CCOc1ccc2c(=O)c3ccccc3[nH]c2c1	72	1350 nM	2530 nM	96.8 µM	–	1190 nM	503 nM	–	–
CCCN(CCC)CCOc1ccc2c(=O)c3c(OC)cc(Cl)cc3[nH]c2c1	179	251 nM	> 2500 nM	45 µM	251 nM	184 nM	–	–	–
CCCCNCCCOc1ccc2c(=O)c3c(Cl)cc(Cl)cc3[nH]c2c1	110	101 nM	82 nM	11.1 µM	294 nM	186 nM	–	–	–
CCN(CC)CCOc1ccc2c(=O)c3cc(F)c(OCCN(CC)CC)cc3[nH]c2c1	> 12500	116 nM	386 nM	> 200 µM	774 nM	209 nM	–	–	–
CCN(CC)CCOc1ccc2c(=O)c3ccc(Cl)cc3n(CCN(CC)CC)c2c1	> 816	49 nM	71 nM	> 40 µM	86 nM	77 nM	–	–	–
CCN(CC)CCOc1ccc2c(=O)c3c(Cl)ccc(Cl)c3[nH]c2c1	152	506 nM	> 2500 nM	77 µM	848 nM	1300 nM	–	–	–
CCCCNCCCOc1ccc2c(=O)c3cc(Cl)c(Cl)cc3[nH]c2c1	2490	36 nM	177 nM	75.2 µM	161 nM	145 nM	–	–	–
CCCN(CCC)CCOc1ccc2[nH]c3cc(F)cc(OC)c3c(=O)c2c1	1590	35 nM	> 250 nM	55.7 µM	175 nM	105 nM	–	–	–
CCN(CC)CCOc1ccc2c(=O)c3cc(Cl)c(Cl)cc3[nH]c2c1	> 2270	44 nM	507 nM	> 100 µM	73 nM	132 nM	–	–	–
CCCN(CCC)CCOc1ccc2[nH]c3cc(F)cc(F)c3c(=O)c2c1	50600	0.4 nM	270 nM	20.2 µM	3.2 nM	1 nM	0.75 nM	–	–
CCN(CC)CCOc1ccc2c(=O)c3cc(F)c(F)cc3[nH]c2c1	> 1370	146 nM	270 nM	> 200 µM	110 nM	187 nM	–	–	–
CCN(CC)CCOc1ccc2c(=O)c3cc(Cl)ccc3[nH]c2c1	> 473	–	1160 nM	> 100 µM	304 nM	351 nM	221 nM	–	–
CC(C)(C)NCCCOc1ccc2c(=O)c3c(F)cc(F)cc3[nH]c2c1	361	115 nM	2500 nM	41.5 µM	627 nM	8.9 nM	–	–	–
CCN(CC)CCOc1ccc2c(=O)c3cc(Cl)cc(Cl)c3[nH]c2c1	38	928 nM	> 2500 nM	35 µM	1290 nM	> 2500 nM	–	–	–
CCN(CC)CCOc1ccc2c(=O)c3cc(F)c(OC)cc3[nH]c2c1	> 1280	156 nM	622 nM	> 200 µM	533 nM	448 nM	–	–	–
